The text below walks through data of US8466167B2, “Compounds and compositions as TLR activity modulators” (IRM LLC, priority 2008, dated 2013).

In general, EC50 refers to the concentration at which the effect is half-maximal.

The target in one test is T1, human TLR8 (Homo sapiens, UniProt Q9NR97).
T1 construct: expressed in transfected cells; host or cells: HEK 293
T1 sequence (Q9NR97 27-1041): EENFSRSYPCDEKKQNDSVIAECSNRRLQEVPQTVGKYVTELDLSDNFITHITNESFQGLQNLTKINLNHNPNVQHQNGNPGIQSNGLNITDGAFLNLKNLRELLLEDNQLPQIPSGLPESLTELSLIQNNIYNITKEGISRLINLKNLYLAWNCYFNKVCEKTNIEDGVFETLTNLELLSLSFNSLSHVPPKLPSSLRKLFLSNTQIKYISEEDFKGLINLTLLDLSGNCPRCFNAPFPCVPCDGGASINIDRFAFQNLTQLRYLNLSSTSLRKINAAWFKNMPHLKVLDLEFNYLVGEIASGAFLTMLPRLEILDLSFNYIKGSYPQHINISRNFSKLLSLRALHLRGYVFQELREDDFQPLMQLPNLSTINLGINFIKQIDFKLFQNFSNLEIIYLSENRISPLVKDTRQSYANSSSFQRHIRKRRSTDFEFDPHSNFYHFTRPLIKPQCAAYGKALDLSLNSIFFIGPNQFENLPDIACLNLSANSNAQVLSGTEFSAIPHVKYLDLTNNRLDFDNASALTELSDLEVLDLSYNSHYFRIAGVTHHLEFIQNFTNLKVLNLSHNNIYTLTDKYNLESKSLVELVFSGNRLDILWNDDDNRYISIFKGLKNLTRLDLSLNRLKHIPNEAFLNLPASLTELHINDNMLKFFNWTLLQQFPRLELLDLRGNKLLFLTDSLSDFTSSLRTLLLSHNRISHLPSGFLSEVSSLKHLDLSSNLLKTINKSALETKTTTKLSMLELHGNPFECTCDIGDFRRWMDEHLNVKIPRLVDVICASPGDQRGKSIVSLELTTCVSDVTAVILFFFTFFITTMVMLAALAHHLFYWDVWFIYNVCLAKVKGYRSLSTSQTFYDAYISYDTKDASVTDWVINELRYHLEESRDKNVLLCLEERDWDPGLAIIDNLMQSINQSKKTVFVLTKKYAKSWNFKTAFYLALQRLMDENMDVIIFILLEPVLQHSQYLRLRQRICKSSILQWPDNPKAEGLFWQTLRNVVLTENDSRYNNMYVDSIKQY
Briefly: Reporter gene assay, HEK293-TLR8 (NF-kB-driven luciferase). Format: cell-based. The following applies: TLR-8 stimulation; read-out: Human TLR-8 EC50. The procedure: (§1) Human embryonic kidney 293 (HEK 293) cells are stably transfected with human TLR7 or TLR8 and an NF-kB-driven luciferase reporter vector (pNifty-Luciferase). As a control assay, normal Hek293 transfected with pNifty-Luc are used. Cells are cultured in DMEM supplemented with 2 mM L-glutamine, 10% heart inactivated FBS, 1% penicillin and streptomycin, 2 μg/ml puromycin (InvivoGen #ant-pr-5) and 5 μg/ml of blasticidin (Invitrogen #46-1120). Bright-Glo™ Luciferase assay buffer and substrate are supplied by Promega #E263B and #E264B (assay substrate and buffer respectively). 384 well clear-bottom plates are supplied by Greiner bio-one (#789163-G) and are GNF custom bar-coded plates.
(§2) Cells are plated at 25,000 cells/well in 384-well plates in a final volume of 50 μl of media. Cells are allowed to adhere to the plates after overnight (18 hours) culture at 37° C. 5% CO2. Serially diluted experimental and positive control compounds are then dispensed to each well and incubated for 7 hours at 37° C. 5% CO2. Cells stimulated with DMSO alone also serve as negative controls. After the incubation, 30 μl of the pre-mix assay buffer and substrate buffer are added to each well according to manufacturer's instructions. The luminescence signal is read on a CLIPR machine with an integration time of 20 seconds per plate.
(§3) Dose response curves are generated for each compound and EC50 values were determined as the concentration that gives 50% of the maximal signal.
On the technique in general: In a reporter assay the amount or activity of a reporter protein is the signal.
Take `Cc1ccc2c(c1)nc(N)c1ncc(CCc3ccc(CN4CCCC4)cc3)cc12` [Example 177, 8-methyl-2-(4-(pyrrolidin-1-ylmethyl)phenethyl)benzo[f][1,7]naphthyridin-5-amine]: the EC50 is 15 µM.

With `Cc1ccc2c(c1)nc(N)c1ncc(CCc3ccc(C(C)NCCN(C)C)cc3)cc12` (centres unmarked) [Example 186, N^1-(1-(4-(2-(5-amino-8-methylbenzo[f][1,7]naphthyridin-2-yl)ethyl)phenyl)ethyl)-N^2,N^2-dimethylethane-1,2-diamine], the EC50 came to 11 µM. Turning to `Cc1ccc2c(c1)nc(N)c1ncc(CCc3ccc(C(C)NCCC(=O)O)cc3)cc12` (centres unmarked) [Example 187, 3-(1-(4-(2-(5-amino-8-methylbenzo[f][1,7]naphthyridin-2-yl)ethyl)phenyl)ethylamino)propanoic acid], the EC50 stood at 82 µM. Same read-out and setting: in the case of `Cc1ccc2c(c1)nc(N)c1ncc(CCc3ccc(C(C)N4CCN(C)CC4)cc3)cc12` (centres unmarked) [Example 188, 8-methyl-2-(4-(1-(4-methylpiperazin-1-yl)ethyl)phenethyl)benzo[f][1,7]naphthyridin-5-amine] it was more than 100 µM; in that of `Cc1ccc2c(c1)nc(N)c1ncc(CCc3ccc(C(C)NC(C)CN(C)C)cc3)cc12` (centres unmarked) [Example 189, N^2-(1-(4-(2-(5-amino-8-methylbenzo[f][1,7]naphthyridin-2-yl)ethyl)phenyl)ethyl)-N^1,N^1-dimethylpropane-1,2-diamine], 6.2 µM. On the same count and under the same terms, in the case of `Cc1ccc2c(c1)nc(N)c1ncc(CCc3ccc(C(C)NCCc4ccncc4)cc3)cc12` (centres unmarked) [Example 190, 8-methyl-2-(4-(1-(2-(pyridin-4-yl)ethylamino)ethyl)phenethyl)benzo[f][1,7]naphthyridin-5-amine] it was 4.3 µM; in that of `CCN(CC)CCNC(C)c1ccc(CCc2cnc3c(N)nc4cc(C)ccc4c3c2)cc1` (centres unmarked) [Example 191, N^1-(1-(4-(2-(5-amino-8-methylbenzo[f][1,7]naphthyridin-2-yl)ethyl)phenyl)ethyl)-N^2,N^2-diethylethane-1,2-diamine], 6 µM; in that of `Cc1ccc2c(c1)nc(N)c1ncc(CCc3ccc(C(C)N4CCC(C(=O)O)C4)cc3)cc12` (centres unmarked) [Example 193, 1-(1-(4-(2-(5-amino-8-methylbenzo[f][1,7]naphthyridin-2-yl)ethyl)phenyl)ethyl)pyrrolidine-3-carboxylic acid], 24 µM. `Cc1ccc2c(c1)nc(N)c1ncc(CCc3ccc(C(C)N4CCC(O)C4)cc3)cc12` (centres unmarked) [Example 195, 1-(1-(4-(2-(5-amino-8-methylbenzo[f][1,7]naphthyridin-2yl)ethyl)phenyl)ethyl)pyrrolidin-3-ol]: the EC50 amounted to 5.3 µM. Take `Cc1ccc2c(c1)nc(N)c1ncc(CCc3ccc(C(C)(C)N)cc3)cc12` [Example 196, 2-(4-(2-aminopropan-2-yl)phenethyl)-8-methylbenzo[f][1,7]naphthyridin-5-amine]: the EC50 amounted to 2.6 µM.

The next test concerns the target T2, human TLR7 (Homo sapiens, UniProt Q9NYK1).
T2 construct: expressed in transfected cells; host or cells: HEK 293
T2 sequence (Q9NYK1 27-1049): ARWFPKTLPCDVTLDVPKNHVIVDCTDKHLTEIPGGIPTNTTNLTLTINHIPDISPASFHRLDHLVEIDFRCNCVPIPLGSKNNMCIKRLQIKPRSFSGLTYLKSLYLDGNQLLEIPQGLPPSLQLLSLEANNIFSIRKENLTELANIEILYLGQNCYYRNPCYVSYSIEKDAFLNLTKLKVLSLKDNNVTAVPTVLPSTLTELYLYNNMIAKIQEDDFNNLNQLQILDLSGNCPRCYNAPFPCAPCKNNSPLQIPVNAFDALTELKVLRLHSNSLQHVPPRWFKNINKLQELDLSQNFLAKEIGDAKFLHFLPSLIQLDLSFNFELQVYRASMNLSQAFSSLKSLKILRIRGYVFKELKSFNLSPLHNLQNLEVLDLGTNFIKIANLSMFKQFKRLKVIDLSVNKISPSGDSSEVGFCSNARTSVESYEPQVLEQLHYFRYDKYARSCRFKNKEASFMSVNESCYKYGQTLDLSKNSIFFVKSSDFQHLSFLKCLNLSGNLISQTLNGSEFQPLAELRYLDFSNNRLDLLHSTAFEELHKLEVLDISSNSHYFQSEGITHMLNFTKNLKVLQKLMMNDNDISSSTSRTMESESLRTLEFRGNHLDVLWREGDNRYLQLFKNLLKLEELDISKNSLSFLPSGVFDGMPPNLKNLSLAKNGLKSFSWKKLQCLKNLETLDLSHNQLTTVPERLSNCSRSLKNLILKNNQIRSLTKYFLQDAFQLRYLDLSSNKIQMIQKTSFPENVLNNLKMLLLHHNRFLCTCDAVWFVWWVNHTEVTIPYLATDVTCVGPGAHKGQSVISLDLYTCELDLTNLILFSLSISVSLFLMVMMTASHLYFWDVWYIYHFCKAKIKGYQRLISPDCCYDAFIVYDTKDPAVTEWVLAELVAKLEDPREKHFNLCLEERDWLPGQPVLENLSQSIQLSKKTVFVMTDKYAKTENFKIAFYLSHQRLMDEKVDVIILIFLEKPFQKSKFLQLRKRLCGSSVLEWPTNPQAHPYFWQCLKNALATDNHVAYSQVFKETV
Kind of test: Reporter gene assay, HEK293-TLR7 (NF-kB-driven luciferase). Format: cell-based. The settings on record: HEK293-TLR7; read-out: EC50 in HEK293-TLR7 assay. The procedure:
as §1, §2, §3
`Nc1nc2ccccc2c2ccc(=O)[nH]c12` [Example 15, 5-aminobenzo[f][1,7]naphthyridin-3(4H)-one]: the EC50 was 24.1 µM.

Still in this test, the particulars now being: TLR-7 stimulation; read-out: Human TLR-7 EC50.
Consider `Cc1ccc2c(c1)nc(N)c1ncc(CCc3ccc4[nH]ccc4c3)cc12` [Example 44, 2-(2-(1H-indol-5-yl)ethyl)-8-methylbenzo[f][1,7]naphthyridin-5-amine], for which the EC50 was determined as 0.107 µM. On the same count and under the same terms, in the case of `Cc1ccc2c(c1)nc(N)c1ncc(CCc3ccc(Oc4ccccc4)cc3)cc12` [Example 46, 8-methyl-2-(4-phenoxyphenethyl)benzo[f][1,7]naphthyridin-5-amine] it was 0.347 µM.

Turning to `COC(=O)CCc1ccc(CCc2cnc3c(N)nc4cc(C)ccc4c3c2)cc1` [Example 61, methyl 3-(4-(2-(5-amino-8-methylbenzo[f][1,7]naphthyridin-2-yl)ethyl)phenyl)propanoate], the EC50 came out at 0.582 µM. As for `Cc1ccc2c(c1)nc(N)c1ncc(CCc3ccc(CCCO)cc3)cc12` [Example 62, 3-(4-(2-(5-amino-8-methylbenzo[f][1,7]naphthyridin-2-yl)ethyl)phenyl)propan-1-ol], the EC50 came out at 0.035 µM. `Cc1ccc2c(c1)nc(N)c1ncc(CCc3ccc(CCC(C)(C)O)cc3)cc12` [Example 63, 4-(4-(2-(5-amino-8-methylbenzo[f][1,7]naphthyridin-2-yl)ethyl)phenyl)-2-methylbutan-2-ol]: the EC50 is 0.024 µM. On the same count and under the same terms, in the case of `CCN1CCN(C(=O)c2ccc(CCc3cnc4c(N)nc5cc(C)ccc5c4c3)c(C)c2)CC1` [Example 126, (4-(2-(5-amino-8-methylbenzo[f][1,7]naphthyridin-2-yl)ethyl)-3-methylphenyl)(4-ethylpiperazin-1-yl)methanone] it was 0.275 µM; in that of `CCCOC(=O)Oc1ccc(CCc2cnc3c(N)nc4cc(C)ccc4c3c2)cc1` [Example 138, 4-(2-(5-amino-8-methylbenzo[f][1,7]naphthyridin-2-yl)ethyl)phenyl propyl carbonate], 0.213 µM; in that of `Cc1ccc2c(c1)nc(N)c1ncc(CCc3ccc(OCCN4CCOCC4)cc3C)cc12` [Example 147, 8-methyl-2-(2-methyl-4-(2-morpholinoethoxy)phenethyl)benzo[f][1,7]naphthyridin-5-amine], 0.014 µM. The same measure, in the same setting: to `COc1ccc(CCc2cnc3c(N)nc4cc(C)ccc4c3c2)cc1OC` [Example 178, 2-(3,4-dimethoxyphenethyl)-8-methylbenzo[f][1,7]naphthyridin-5-amine] belongs 0.562 µM.
